Columns and labels:
[1] = system: PCA-induced serotonin depletion (5HT uptake into 5HT neurons), rat whole brain; experiment: Antagonism of parachloroamphetamine (PCA)-induced depletion of serotonin levels from rat brain in vivo; design: species or system Sprague-Dawley CD male rats; conditions: subcutaneous, together with 6.6 mg/kg PCA, whole brain serotonin four hours later
From the text: Ability of (1-{2-[1-(3,4-Dichloro-phenyl)-ethyl]-phenyl}-ethyl)-methyl-amine Hydrochloride to Antagonize Parachloroamphetamine (PCA)-induced Depletion of Serotonin Levels from Rat Brain In Vivo
Serotonin uptake blockers show a dose-dependent antagonism of the serotonin-depleting action of PCA, a drug which requires 5HT uptake into 5HT neurons to exert its effect. Sprague-Dawley CD male rats (180-230 g.) in groups of five received two simultaneous subcutaneous injections: either the named test compound (at different dosage levels)+6.6 mg/kg body weight PCA, water+6.6 mg/kg body weight PCA, or water+water (controls). The rats were decapitated four hours later and their whole brain assayed for serotonin content by the Bogdanski method. Homogenates of brain in 0.1N HCl were made alkaline with borate buffer and extracted with butanol. The solvent phase was then extracted with 0.1N HCl. The aqueous extracts were acidified with concentrated HCl and the intrinsic fluorescence of serotonin measured in a spectrophotofluorometer. The ED50, i.e., the dose giving a 50% reversal of the PCA-induced serotonin depletion, was estimated to be 0.1 mg/kg body weight. Similarly, the ED50 for other compounds in Examples 1-17 were determined and were <0.3 mg/kg.

[2] = system: immobility of Swiss-Webster CD male mice; experiment: Reduction of behavioral despair in vivo (modified Porsolt method); conditions: mouse, subcutaneous, tested one hour after injection, linear regression analysis of % MPE data
Procedure: Reduction of Behavioral Despair In Vivo (Modified Porsolt Method) by (1-{2-[1-(3,4-Dichloro-phenyl)-ethyl]-phenyl}-ethyl)-methyl-amine hydrochloride.
A modification of the procedure described by Porsolt et al., Arch. Int. Pharmnacodyn., 229, pp. 327-336 (1977) was used. A number of Swiss-Webster CD male mice weighing 25-30 g. were housed under standard laboratory conditions for at least one week prior to experimentation. Groups of 10 mice were then injected subcutaneously with either a given dosage of the named test compound or vehicle (5% Emulphor: 5% ethanol: 90% normal saline). One hour later the mice were placed individually in 1 liter beakers containing 7 cm of 25° C. water. […] A total of ten observations were made, each being scored as “0=animal moving, swimming, attempting to escape” or “1=animal immobile”. The number of positive observations for each mouse was then totaled and a mean immobility score calculated for the group of ten. […] From the % MPE data a % MPE50 value, i.e. the dosage producing a 50% reduction in immobility relative to control, was determined by linear regression analysis to be 5.2 mg/kg body weight for the named test compound. Similarly, the % MPE50 values were determined for other compounds in examples 1-17 and were <8.0 mg/kg.

CNC(C)c1ccccc1C(C)c1ccc(Cl)c(Cl)c1.Cl (centres unmarked) [(1-{2-[1-(3,4-Dichloro-phenyl)-ethyl]-phenyl}-ethyl)-methyl-amine Hydrochloride]
ED50, the dose giving a 50% reversal of the PCA-induced serotonin depletion [1]: 0.1 mg/kg body weight | % MPE50, the dosage producing a 50% reduction in immobility relative to control [2]: 5.2 mg/kg body weight

— US6759435B1, “Antidepressant drugs and methods” (A.P. Group Inc., priority 2003, dated 2004)
